The values that follow come from PubChem BioAssay AID330 (DTP/NCI, 2004).

Molecules are shown by their SMILES. Several values for one entry are separate records, joined by “and”; a condition that tells them apart may be missing. Equal entries are not always repeated. Inconclusive results and toxic doses are left out.

This experiment has as its system P388 leukemia ip, CD2F1 mice, survival T/C. The experiment in a line: NCI In Vivo Anticancer Drug Screen. Data for tumor model P388 Leukemia (intraperitoneal) in CD2F1 (CDF1) mice. The note with it: endpoint: median survival time, higher = longer survival. Put shortly: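 Mice carrying the transplanted tumor received test compound or vehicle. Survival was recorded in each group, and the value is the treated-group measurement divided by that of the vehicle-treated control group.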

Where [1] appears, read: dose: 50.0 mg/kg/injection, schedule: Q01DX009 (ip), vehicle: saline.
The mark [2] stands for this setting: dose: 100.0 mg/kg/injection, schedule: Q04DX003 (ip), vehicle: saline.
Where [3] appears, read: dose: 200.0 mg/kg/injection, schedule: Q04DX003 (ip), vehicle: saline.
The mark [4] stands for this setting: dose: 400.0 mg/kg/injection, schedule: Q04DX003 (ip), vehicle: saline.
[5] abbreviates: dose: 60.0 mg/kg/injection, schedule: Q01DX005 (ip), vehicle: Klucel (hydroxypropylcellulose) (HPC).
Where [6] appears, read: dose: 120.0 mg/kg/injection, schedule: Q01DX005 (ip), vehicle: Klucel (hydroxypropylcellulose) (HPC).
Setting [7] is: dose: 240.0 mg/kg/injection, schedule: Q01DX005 (ip), vehicle: Klucel (hydroxypropylcellulose) (HPC).
[8] abbreviates: dose: 50.0 mg/kg/injection, schedule: Q01DX005 (ip), vehicle: saline with Tween-80.
[9] abbreviates: dose: 100.0 mg/kg/injection, schedule: Q01DX005 (ip), vehicle: saline with Tween-80.
Where [10] appears, read: dose: 200.0 mg/kg/injection, schedule: Q01DX005 (ip), vehicle: saline with Tween-80.
Setting [11] is: dose: 25.0 mg/kg/injection, schedule: Q01DX009 (ip), vehicle: saline.
Where [12] appears, read: dose: 100.0 mg/kg/injection, schedule: Q01DX009 (ip), vehicle: saline.
[13] abbreviates: dose: 200.0 mg/kg/injection, schedule: Q01DX009 (ip), vehicle: saline.

In the case of `O=C1C=CN(C2OC(CO)C(O)C2O)C(=O)C1` (centres undefined), the T/C is 117 % of control (dose: 11.0 mg/kg/injection, schedule: Q01DX009 (ip), vehicle: saline); 122 % of control (dose: 16.0 mg/kg/injection, schedule: Q01DX009 (ip), vehicle: saline); 120 % of control and 122 % of control and 124 % of control (dose: 22.0 mg/kg/injection, schedule: Q01DX009 (ip), vehicle: saline); 109 % of control and 119 % of control and 120 % of control (dose: 33.0 mg/kg/injection, schedule: Q01DX009 (ip), vehicle: saline); 118 % of control and 124 % of control under setting [1].

Regarding `S=C(Cl)N1CCN(C(=S)Cl)CC1`, the T/C reads like this: (dose: 12.5 mg/kg/injection, schedule: Q01DX009 (ip), vehicle: Klucel (hydroxypropylcellulose) (HPC)) 104 % of control; (dose: 25.0 mg/kg/injection, schedule: Q01DX009 (ip), vehicle: Klucel (hydroxypropylcellulose) (HPC)) 112 % of control; (dose: 50.0 mg/kg/injection, schedule: Q01DX009 (ip), vehicle: Klucel (hydroxypropylcellulose) (HPC)) 110 % of control and 93 % of control.

For `O=C(Nc1cccc(Cl)c1)Oc1cccnc1`, the T/C is 99 % of control (dose: 60.0 mg/kg/injection, schedule: Q01DX005 (ip), vehicle: saline with Tween-80); 88 % of control (dose: 120.0 mg/kg/injection, schedule: Q01DX005 (ip), vehicle: saline with Tween-80); 89 % of control (dose: 240.0 mg/kg/injection, schedule: Q01DX005 (ip), vehicle: saline with Tween-80).

Consider `CS(=O)(=O)OCCCCCCCCCCCC1C=CCC1` (centres undefined), for which the T/C by setting is: under setting [2], 94 % of control; under setting [3], 93 % of control; under setting [4], 94 % of control.

Turning to `CC1(O)c2ccccc2-c2nc3ccccc3nc21` (centres undefined), the T/C by setting is: (dose: 100.0 mg/kg/injection, schedule: Q04DX003 (ip), vehicle: saline sonified) 110 % of control; (dose: 200.0 mg/kg/injection, schedule: Q04DX003 (ip), vehicle: saline sonified) 110 % of control; (dose: 400.0 mg/kg/injection, schedule: Q04DX003 (ip), vehicle: saline sonified) 100 % of control.

Regarding `O=C(CSC(SCC(=O)Nc1ccccc1)c1ccccc1)Nc1ccccc1`, the T/C under setting [5] is 101 % of control and the T/C under setting [6] is 86 % of control.

On to `COc1ccc2c3c([nH]c2c1)[C@H]1C[C@H]2[C@H](C[C@@H](O)[C@H](OC)[C@H]2C(=O)O)CN1CC3`, for which the T/C runs as follows: (dose: 50.0 mg/kg/injection, schedule: Q01DX005 (ip), vehicle: Klucel (hydroxypropylcellulose) (HPC)) 100 % of control; (dose: 100.0 mg/kg/injection, schedule: Q01DX005 (ip), vehicle: Klucel (hydroxypropylcellulose) (HPC)) 100 % of control; (dose: 200.0 mg/kg/injection, schedule: Q01DX005 (ip), vehicle: Klucel (hydroxypropylcellulose) (HPC)) 101 % of control.

For `O=c1c(CO)c(-c2ccccc2)sc2ccccc12`, the T/C is 96 % of control under setting [5], 97 % of control under setting [6] and 95 % of control under setting [7].

Regarding `CCOC(=O)/C(Nc1ccc(C(=O)OCC)cc1)=C1\COc2nc(N)[nH]c(=O)c2N1`, the T/C is 93 % of control under setting [8], 91 % of control under setting [9] and 107 % of control under setting [10].

For the compound `Cc1ccccc1NP1(=O)OCCCN1Cc1ccccc1Cl` (centres undefined), the T/C is 99 % of control under setting [8], 93 % of control under setting [9] and 93 % of control under setting [10].

For `Cn1c(=O)[nH]c(=O)c2nc(-c3ccccc3)cnc21`, the T/C by setting is: (dose: 100.0 mg/kg/injection, schedule: Q04DX002 (ip), vehicle: Klucel (hydroxypropylcellulose) (HPC)) 105 % of control; (dose: 400.0 mg/kg/injection, schedule: Q04DX002 (ip), vehicle: Klucel (hydroxypropylcellulose) (HPC)) 86 % of control.

Consider `O=[N+]([O-])c1ccc(F)c(Cl)c1`, for which the T/C by setting is: (dose: 100.0 mg/kg/injection, schedule: Q04DX003 (ip), vehicle: other) 100 % of control; (dose: 200.0 mg/kg/injection, schedule: Q04DX003 (ip), vehicle: other) 100 % of control.

`CCCC1OC(/C=C/c2ccccc2)OCC1CC` (centres undefined): the T/C (dose: 100.0 mg/kg/injection, schedule: Q01DX009 (ip), vehicle: saline with Tween-80) is 101 % of control and 108 % of control and 109 % of control; the T/C (dose: 200.0 mg/kg/injection, schedule: Q01DX009 (ip), vehicle: saline with Tween-80) was 101 % of control and 116 % of control (2×); the T/C (dose: 400.0 mg/kg/injection, schedule: Q01DX009 (ip), vehicle: saline with Tween-80) was 116 % of control and 120 % of control.

As to `Cc1ccc(C(CC(=O)O)C(N)C(=O)O)cc1` (centres undefined), the T/C (dose: 12.5 mg/kg/injection, schedule: Q01DX009 (ip), vehicle: saline) is 98 % of control; the T/C under setting [11] is 88 % of control; the T/C under setting [1] is 95 % of control and 96 % of control; the T/C under setting [12] is 100 % of control; the T/C under setting [13] is 95 % of control.

For `C[n+]1c2ccccc2c(Nc2ccc(NS(=O)(=O)CCCCN=C(N)N)cc2)c2ccc(N)cc21`, the T/C is 113 % of control (dose: 0.75 mg/kg/injection, schedule: Q01DX005 (ip), vehicle: Klucel (hydroxypropylcellulose) (HPC)); 122 % of control (dose: 1.5 mg/kg/injection, schedule: Q01DX005 (ip), vehicle: Klucel (hydroxypropylcellulose) (HPC)); 151 % of control (dose: 3.0 mg/kg/injection, schedule: Q01DX005 (ip), vehicle: Klucel (hydroxypropylcellulose) (HPC)).

Take `Cc1nccc2nnc(C)n12`: the T/C is, setting by setting: under setting [2], 98 % of control; under setting [3], 98 % of control; under setting [4], 95 % of control.

In the case of `CCOC(=O)c1cnc2cc3c(cc2c1Nc1ccccc1)OCO3`, the T/C by setting is: under setting [5], 94 % of control; under setting [6], 99 % of control; under setting [7], 95 % of control.

As for `O=Nc1ccc(Cl)cc1C(=O)c1ccccc1`, the T/C by setting is: under setting [1], 90 % of control; under setting [12], 104 % of control; under setting [13], 97 % of control.

In the case of `Cc1nc2c([N+](=O)[O-])c(NCCO)c([N+](=O)[O-])cc2[nH]1`, the T/C (dose: 100.0 mg/kg/injection, schedule: Q04DX003 (ip), vehicle: saline with Tween-80) is 94 % of control; the T/C (dose: 200.0 mg/kg/injection, schedule: Q04DX003 (ip), vehicle: saline with Tween-80) was 92 % of control; the T/C (dose: 400.0 mg/kg/injection, schedule: Q04DX003 (ip), vehicle: saline with Tween-80) was 103 % of control.

As for `S=C(Nc1ccc(Cl)cc1)SC1CCCCC1`, the T/C was 100 % of control under setting [11]; 102 % of control and 108 % of control under setting [1]; 118 % of control and 119 % of control under setting [12]; 124 % of control under setting [13].

Consider `O=C(c1cccnc1)C(CCc1ccccn1)c1ccccn1` (centres undefined), for which the T/C under setting [2] is 100 % of control and the T/C under setting [3] was 100 % of control.

On to `N[C@H](C(=O)O)[C@@H]1CC(S(=O)(=O)c2ccccc2)=NO1`, for which the T/C (dose: 12.5 mg/kg/injection, schedule: Q01DX005 (ip), vehicle: distilled water + Tween-80) is 102 % of control and the T/C (dose: 25.0 mg/kg/injection, schedule: Q01DX005 (ip), vehicle: distilled water + Tween-80) is 102 % of control.

On to `Cc1ccnc(NS(=O)(=O)c2ccc(Nc3c4ccccc4nc4cc(Cl)ccc34)cc2)n1`, for which the T/C (dose: 100.0 mg/kg/injection, schedule: Q04DX003 (ip), vehicle: Klucel (hydroxypropylcellulose) (HPC)) was 104 % of control and 114 % of control; the T/C (dose: 200.0 mg/kg/injection, schedule: Q04DX003 (ip), vehicle: Klucel (hydroxypropylcellulose) (HPC)) is 106 % of control and 118 % of control; the T/C (dose: 400.0 mg/kg/injection, schedule: Q04DX003 (ip), vehicle: Klucel (hydroxypropylcellulose) (HPC)) is 124 % of control.

For the compound `CCSc1cccc2nnc(C(C)(C)C)n12`, the T/C by setting is: (dose: 100.0 mg/kg/injection, schedule: Q01DX001 (ip), vehicle: saline with Tween-80) 98 % of control; (dose: 200.0 mg/kg/injection, schedule: Q01DX001 (ip), vehicle: saline with Tween-80) 99 % of control; (dose: 400.0 mg/kg/injection, schedule: Q01DX001 (ip), vehicle: saline with Tween-80) 97 % of control.

As to `c1ccc(Nc2nnnn2-c2ccccc2)cc1`, the T/C was 100 % of control (dose: 25.0 mg/kg/injection, schedule: Q01DX005 (ip), vehicle: saline with Tween-80); 100 % of control under setting [8]; 104 % of control under setting [9].

Regarding `Cn1c(=O)c2c(c3ccccc31)Oc1oc3ccc4ccccc4c3c(=O)c1C2`, the T/C (dose: 12.5 mg/kg/injection, schedule: Q01DX009 (ip), vehicle: saline with Tween-80) was 92 % of control and the T/C (dose: 25.0 mg/kg/injection, schedule: Q01DX009 (ip), vehicle: saline with Tween-80) is 90 % of control.

On to `CN(C)CCCOC1(Cc2ccc(F)cc2)CCCCCC1`, for which the T/C is 102 % of control under setting [8] and 102 % of control under setting [9].
